Measurements reported in patent US11731964B2, “Benzamide antibacterial agents” (Purdue Research Foundation, priority 2018, dated 2023).
Converted amounts (≈) assume the structure as drawn. Like-named read-outs stand apart in the source and are kept apart here.

Tests used:
VRE = experiment: MIC (Table 5, strain not given); type: cell-based; details: Enterococcus; VRE (Table 5)
Description: (§1) Bacteria were cultured in cation-adjusted Mueller Hinton Broth (for strains in Tables 1 and 4) or Brain Heart Infusion broth (for Enterococcus faecium) or Tryptic Soy Broth (all other bacteria) in a 96-well plate at 37° C. for at least 20 hours. The MIC was classified as the lowest concentration where no visual growth of bacteria was observed. The minimum bactericidal concentration (MBC) was tested by spotting 4 μL from wells with no growth onto Tryptic Soy Agar (TSA) plates. Plates were incubated at 37° C. for at least 18 hours before recording the MBC.

S. aureus = experiment: MIC (Table 5, strain not given); type: cell-based; details: Staphylococcus aureus; S. aureus (Table 5)
Description: as §1

E. faecalis = experiment: MIC (Table 5, strain not given); type: cell-based; details: Enterococcus faecalis; E. faecalis (Table 5)
Description: as §1

[1] = tested on: C. difficile NR-32904 (P30); experiment: Clostridium difficile inhibition analysis; type: cell-based; details: for Clostridium difficile inhibition: Table 6, P30; for Antibacterial activity: Table 7, C. difficile NR-32904 (P30)
[2] = tested on: Clostridium difficile ATCC 9689; experiment: Clostridium difficile inhibition analysis; type: cell-based; details: Table 6, ATCC 9689
[3] = tested on: C. difficile NR-32891 (P13); experiment: Clostridium difficile inhibition analysis; type: cell-based; details: for Clostridium difficile inhibition: Table 6, P13; for Antibacterial activity: Table 7, C. difficile NR-32891 (P13)
[4] = tested on: C. difficile NR-13435 (isolate 9); experiment: Clostridium difficile inhibition analysis; type: cell-based; details: for Clostridium difficile inhibition: Table 6, I9; for Antibacterial activity: Table 7, C. difficile NR-13435 (isolate 9)
MRSA ATCC 33592 = experiment: MIC, broth microdilution; type: cell-based; details: Staphylococcus aureus
Description: as §1

[5] = tested on: C. difficile NR-13432 (isolate 6); experiment: Clostridium difficile inhibition analysis; type: cell-based; details: for Clostridium difficile inhibition: Table 6, I6; for Antibacterial activity: Table 7, C. difficile NR-13432 (isolate 6)
[6] = tested on: C. difficile NR-32895 (P19); experiment: Clostridium difficile inhibition analysis; type: cell-based; details: for Clostridium difficile inhibition: Table 6, P19; for Antibacterial activity: Table 7, C. difficile NR-32895 (P19)
[7] = tested on: Clostridium difficile ATCC 43255; experiment: Clostridium difficile inhibition analysis; type: cell-based; details: for Clostridium difficile inhibition: Table 6, ATCC 43255; for Antibacterial activity: Table 7, C. difficile ATCC 43255
[8] = tested on: Clostridium difficile ATCC BAA 1801; experiment: Clostridium difficile inhibition analysis; type: cell-based; details: for Clostridium difficile inhibition: Table 6, ATCC BAA 1801; for Antibacterial activity: Table 7, C. difficile ATCC BAA 1801
[9] = tested on: C. difficile NR-32883 (P2); experiment: Clostridium difficile inhibition analysis; type: cell-based; details: for Clostridium difficile inhibition: Table 6, P2; for Antibacterial activity: Table 7, C. difficile NR-32883 (P2)
MRSA NRS385 (USA500) = experiment: MIC and MBC; type: cell-based; details: Staphylococcus aureus
Description: as §1

MRSA NRS384 (USA300) = experiment: MIC and MBC; type: cell-based; details: Staphylococcus aureus
Description: as §1

MRSA NRS386 (USA700) = experiment: MIC and MBC; type: cell-based; details: Staphylococcus aureus
Description: as §1

E. faecium ATCC = experiment: MIC and MBC; type: cell-based
Description: as §1

MRSA NRS123 (USA400) = experiment: MIC and MBC; type: cell-based; details: Staphylococcus aureus
Description: as §1

MRSA NRS387 (USA800) = experiment: MIC and MBC; type: cell-based; details: Staphylococcus aureus
Description: as §1

MRSA NRS119 = experiment: MIC and MBC; type: cell-based, Staphylococcus aureus; details: Staphylococcus aureus
Description: as §1

[10] = tested on: VRE (E. faecalis) ATCC 51575; experiment: MIC, broth microdilution; type: cell-based
Description: as §1

E. faecalis ATCC 29212 = experiment: MIC, broth microdilution; type: cell-based; details: Enterococcus faecalis, ATCC29212
Description: as §1

[11] = tested on: L. monocytogenes ATCC 19115; experiment: MIC, broth microdilution; type: cell-based; details: Listeria monocytogenes, ATCC19115
Description: as §1

S. aureus ATCC 25923 = experiment: MIC, broth microdilution; type: cell-based; details: Staphylococcus aureus, ATCC25923
Description: as §1

VISA NRS1 = experiment: MIC and MBC; type: cell-based, S. aureus; details: Staphylococcus aureus
Description: as §1

VRSA VRS12 = experiment: MIC and MBC; type: cell-based, S. aureus
Description: as §1

[12] = tested on: Acinetobacter baumannii ATCC 19606; experiment: MIC against Gram-negative pathogens; type: cell-based
Description: as §1

[13] = tested on: Klebsiella pneumoniae BAA-1706; experiment: MIC against Gram-negative pathogens; type: cell-based
Description: as §1

[14] = tested on: Pseudomonas aeruginosa ATCC 15442; experiment: MIC against Gram-negative pathogens; type: cell-based
Description: as §1

In the case of C[C@@H]1C[C@H](C)CN(S(=O)(=O)c2ccc(C(=O)Nc3nnc(-c4ccnn4C)o3)cc2)C1 [HSGN-124, 4-(((3S,5R)-3,5-dimethylpiperidin-1-yl)sulfonyl)-N-(5-(1-methyl-1H-pyrazol-5-yl)-1,3,4-oxadiazol-2-yl)benzamide], the MIC (VRE) is reported as 128 µg/mL (≈ 288 µM), the MIC (S. aureus) is reported as 8 µg/mL (≈ 18 µM) and the MIC (E. faecalis) is reported as 16 µg/mL (≈ 36 µM). It also gave a Clostridium difficile inhibition [1] of 2, a Clostridium difficile inhibition [2] of 1 and a Clostridium difficile inhibition [3] of 2. The Clostridium difficile inhibition [4] was 0.5, the MIC (MRSA ATCC 33592; MRSA ATCC 33592, read-out: MIC) was 4 µg/mL (≈ 9 µM) and the Clostridium difficile inhibition [5] was 0.5. It also gave a Clostridium difficile inhibition [6] of 1, a Clostridium difficile inhibition [7] of 1 and a Clostridium difficile inhibition [8] of 2. For the same molecule, the Clostridium difficile inhibition [9] was 0.5.
Molecule CN(c1ccccc1)S(=O)(=O)c1ccc(C(=O)Nc2nnc(-c3ccc(C(F)(F)F)cc3)o2)cc1 [HSGN-161, 4-(N-methyl-N-phenylsulfamoyl)-N-(5-(4-(trifluoromethyl)phenyl)-1,3,4-oxadiazol-2-yl)benzamide] has an MIC (S. aureus) of 0.25 µg/mL (≈ 0.498 µM), a Clostridium difficile inhibition [1] of 0.5 and a Clostridium difficile inhibition [2] of 0.5. It also gave a Clostridium difficile inhibition [3] of 0.5, a Clostridium difficile inhibition [4] of 0.5 and an MIC (MRSA ATCC 33592; MRSA ATCC 33592, read-out: MIC) of 0.25 µg/mL (≈ 0.498 µM). It also gave a Clostridium difficile inhibition [5] of 0.5, a Clostridium difficile inhibition [6] of 0.5 and a Clostridium difficile inhibition [7] of 0.5. It also gave a Clostridium difficile inhibition [8] of 1 and a Clostridium difficile inhibition [9] of 0.5.
In the case of C[C@@H]1C[C@H](C)CN(S(=O)(=O)c2csc(C(=O)Nc3nnc(-c4ccc(C(F)(F)F)cc4)o3)c2)C1 [HSGN-193, 4-(((3S,5R)-3,5-dimethylpiperidin-1-yl)sulfonyl)-N-(5-(4-(trifluoromethyl)phenyl)-1,3,4-oxadiazol-2-yl)thiophene-2-carboxamide], the MIC (S. aureus) is reported as 0.5 µg/mL (≈ 0.972 µM), the Antibacterial activity [1] is reported as 0.5 and the Antibacterial activity [3] is reported as 0.5. For the same molecule, the Antibacterial activity [4] was 0.125, the MIC (MRSA ATCC 33592; MRSA ATCC 33592, read-out: MIC) was 1 µg/mL (≈ 1.94 µM) and the Antibacterial activity [5] was 0.125. The Antibacterial activity [6] was 0.25, the Antibacterial activity [7] was 0.25 and the Antibacterial activity [8] was 0.25. The Antibacterial activity [9] was 0.125.
CN[C@H](CC(C)C)C(=O)N[C@H]1C(=O)N[C@@H](CC(N)=O)C(=O)N[C@H]2C(=O)N[C@H]3C(=O)N[C@H](C(=O)N[C@H](C(=O)O)c4cc(O)cc(O)c4-c4cc3ccc4O)[C@H](O)c3ccc(c(Cl)c3)Oc3cc2cc(c3O[C@@H]2O[C@H](CO)[C@@H](O)[C@H](O)[C@H]2O[C@H]2C[C@](C)(N)[C@H](O)[C@H](C)O2)Oc2ccc(cc2Cl)[C@H]1O [Vancomycin, reference compound] showed a Clostridium difficile inhibition [1] of 0.5, an Antibacterial activity [1] of 1 and an MBC (MRSA NRS385 (USA500)) of 2 µg/mL (≈ 1.38 µM). It also gave an MIC (MRSA NRS385 (USA500)) of no more than 1 µg/mL, an MBC (MRSA NRS384 (USA300)) of no more than 1 µg/mL and an MIC (MRSA NRS384 (USA300)) of no more than 1 µg/mL. The MBC (MRSA NRS386 (USA700)) was no more than 1 µg/mL, the MIC (MRSA NRS386 (USA700)) was no more than 1 µg/mL and the MIC (E. faecium ATCC; E. faecium ATCC) was greater than 128 µg/mL. For the same molecule, the MBC (E. faecium ATCC; Enterococcus faecium) was greater than 128 µg/mL, the MIC (E. faecium ATCC; Enterococcus faecium) was greater than 128 µg/mL and the MBC (MRSA NRS123 (USA400)) was no more than 1 µg/mL. It also gave an MIC (MRSA NRS123 (USA400)) of no more than 1 µg/mL, an MBC (MRSA NRS387 (USA800)) of 2 µg/mL (≈ 1.38 µM) and an MIC (MRSA NRS387 (USA800)) of 2 µg/mL (≈ 1.38 µM). The Clostridium difficile inhibition [2] was 0.5, the Clostridium difficile inhibition [3] was 0.5 and the Antibacterial activity [3] was 0.5. It also gave a Clostridium difficile inhibition [4] of 2, an Antibacterial activity [4] of 1 and an MBC (MRSA NRS119) of no more than 1 µg/mL. The MIC (MRSA NRS119) was no more than 1 µg/mL, the MIC [10] was greater than 128 µg/mL and the MIC (E. faecalis ATCC 29212) was 2 µg/mL (≈ 1.38 µM). It also gave an MIC [11] of 1 µg/mL (≈ 0.69 µM), an MIC (S. aureus ATCC 25923) of 2 µg/mL (≈ 1.38 µM) and an MIC (MRSA ATCC 33592) of 2 µg/mL (≈ 1.38 µM). It also gave a Clostridium difficile inhibition [5] of 1, an Antibacterial activity [5] of 0.25 and an MBC (VISA NRS1) of 4 µg/mL (≈ 2.76 µM). It also gave an MIC (VISA NRS1) of 4 µg/mL (≈ 2.76 µM), an MBC (VRSA VRS12; Staphylococcus aureus, VRSA) greater than 128 µg/mL and an MIC (VRSA VRS12; Staphylococcus aureus, VRSA) greater than 128 µg/mL. For the same molecule, the MIC (VRSA VRS12; VRSA VRS12) was greater than 128 µg/mL, the Clostridium difficile inhibition [6] was 4 and the Antibacterial activity [6] was 1. The Clostridium difficile inhibition [7] was 1, the Antibacterial activity [7] was 1 and the Clostridium difficile inhibition [8] was 1. For the same molecule, the Antibacterial activity [8] was 1, the Clostridium difficile inhibition [9] was 0.5 and the Antibacterial activity [9] was 0.5.
Colistin [reference compound] showed an MIC [12] of no more than 1 µg/mL, an MIC [13] of no more than 1 µg/mL and an MIC [14] of no more than 1 µg/mL.
